{"source": "paper PMC5594493", "about": "“Antiproliferative factor (APF) binds specifically to sites within the cytoskeleton-associated protein 4 (CKAP4) extracellular domain” (BMC Biochemistry, 2017)", "origin": "cited, not measured here", "system": "cell proliferation", "details": "cited from earlier work", "procedure": "Cells were treated with 20 nM APF or as-APF for 96 h and the rate of cell growth was measured using the XTT proliferation assay. […] The rate of growth of T24 cells was reduced by 47% with APF and by 60% with as-APF, relative to cells treated with vehicle alone; moreover, the difference in the antiproliferative effect of as-APF and APF was de ..."}
{"substance": "Neu5Acα2 − 3Galβ1 − 3GalNAcα-O-TVPAAVVVA [APF]", "values": [{"measurement": "relative antiproliferative effect of as-APF and APF", "setting": "ref [2]", "result": "more or less equipotent"}, {"measurement": "IC50", "setting": "ref [3], read-out: IC50, inhibition of proliferation", "result": "~1", "unit": "nM"}]}
